Experimental data taken from PubChem BioAssay (NCI).
Several values for one entry are separate records, joined by “and”; a condition that tells them apart may be missing. Equal entries are not always repeated.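 96-well plates; 48 h exposure; 5 concentrations. Endpoints by linear interpolation between flanking doses. Not reached: highest tested concentration assigned. GI50: concentration for 50% inhibition of growth. TGI is the concentration that stops growth completely.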

Key:
Assay in all cases: inhibition of tumour cell growth, NCI panel, 48 h
HL-60(TB) leukemia = tested on: HL-60(TB) leukemia
HOP-62 NSCLC = tested on: HOP-62 NSCLC
HOP-92 NSCLC = tested on: HOP-92 NSCLC
K-562 leukemia = tested on: K-562 leukemia
NCI-H460 lung = tested on: NCI-H460 lung
SF-295 CNS = tested on: SF-295 CNS
SK-MEL-2 melanoma = tested on: SK-MEL-2 melanoma
SK-OV-3 ovarian = tested on: SK-OV-3 ovarian
SR leukemia = tested on: SR leukemia
SW-620 colon = tested on: SW-620 colon

| Compound | TGI (HL-60(TB) leukemia) | TGI (HOP-62 NSCLC) | TGI (HOP-92 NSCLC) | TGI (K-562 leukemia) [µM] | TGI (NCI-H460 lung) | TGI (SF-295 CNS) [µM] | TGI (SK-MEL-2 melanoma) [µM] | TGI (SK-OV-3 ovarian) [µM] | TGI (SR leukemia) [µM] | TGI (SW-620 colon) | GI50 (HL-60(TB) leukemia) [µM] | GI50 (HOP-62 NSCLC) [µM] | GI50 (HOP-92 NSCLC) | GI50 (K-562 leukemia) | GI50 (NCI-H460 lung) | GI50 (SF-295 CNS) [µM] | GI50 (SK-MEL-2 melanoma) [µM] | GI50 (SK-OV-3 ovarian) [µM] | GI50 (SR leukemia) [µM] | GI50 (SW-620 colon) [µM] |
| --- | --- | --- | --- | --- | --- | --- | --- | --- | --- | --- | --- | --- | --- | --- | --- | --- | --- | --- | --- | --- |
| CN1CCc2nc(N)nc(-c3nc(N)nc4c3CN(C)CC4)c2C1 | > 100 µM | > 100 µM | > 100 µM | > 100 | > 100 µM | > 100 | > 100 | > 100 | > 100 | > 100 µM | – | – | – | – | – | – | – | – | – | – |
| Cc1cc(C(=O)Nc2ccc3cc(CN4CCOCC4)ccc3n2)c(C)n1-c1ccccc1 | 5.06 µM | 8.05 µM | 40.3 µM | > 55.3 | > 52.1 µM | 12.5 | 5.89 | 40.2 | > 74.8 | 30.5 µM | 1.71 | 1.72 | 2.15 µM | 1.06 µM | 2.51 µM | 1.99 | 2.44 | 4.54 | 2.6 | 4.18 |
| COCC[C@H]1CCC/C=C/[C@@H]2C[C@H](O)C[C@H]2[C@H](O)/C=C/C(=O)O1 | 0.87 µM | > 100 µM | 0.888 µM | > 100 | > 100 µM | > 100 | 0.636 | > 100 | – | 0.258 µM | 0.273 | 0.0946 | 0.214 µM | 0.313 µM | 0.39 µM | 0.0796 | 0.177 | 0.0725 | 0.141 | 0.0572 |
| CCCCNC1CCCCC[C@H]1O (some centres undefined) | > 100 µM | > 100 µM | > 100 µM | > 100 | > 100 µM | > 100 | > 100 | > 100 | > 100 | > 100 µM | – | – | – | – | – | – | – | – | – | – |
| COc1ccc(C(=O)c2cc(C)c(OC)c(C)c2)cc1OC(=O)CCl | < 0.01 µM | > 100 µM | > 96.1 µM | > 100 | 18.5 µM | > 86 | > 100 | > 100 | > 100 | > 100 µM | < 0.01 | < 0.0191 | 12.4 µM | < 0.01 µM | < 0.01 µM | < 0.0229 | < 0.01 | < 0.0238 | < 0.01 | < 0.01 |
| Cc1cc(C)c(NC(=O)c2sc3nc4c(cc3c2N)C(=O)CCC4)c(C)c1 | > 100 µM | > 100 µM | 32.1 µM | > 100 | 21.2 µM | > 100 | 38.7 | > 100 | > 55.3 | > 100 µM | 3.64 | 4.56 | 0.114 µM | 1.9 µM | 1.56 µM | 0.755 | 0.468 | 2.07 | 3 | 2.87 |
| COc1cc(Cc2nccc3cc(OC)c(OC)cc23)c(C(C)=O)cc1OC | 130 µM and > 750 µM | 135 µM and 394 µM | 267 µM and > 750 µM | 300 | 300 µM and > 750 µM | > 750 | 300 | 254 | > 750 | 300 µM and > 750 µM | > 750 | 101 | 99.3 µM and > 750 µM | 37.6 µM and 194 µM | 52.9 µM and 85.5 µM and 340 µM | 224 | – | – | – | – |
| CCc1nc(N)nc(N)c1-c1ccc(NC)c([N+](=O)[O-])c1 | > 51.8 µM | 37.7 µM | > 86.8 µM | > 25.8 | > 100 µM | > 94.7 | > 92.5 | > 100 | > 29.4 | > 100 µM | – | – | – | – | – | – | – | – | – | – |
| CC1(C)C(=O)/C(=C\c2cccnc2)C[C@]2(C)[C@H]3CC[C@@H]4[C@H]5[C@H](C(=O)/C=C/c6cccnc6)CC[C@]5(C(=O)O)CC[C@@]4(C)[C@]3(C)CC[C@@H]12 | 5.27 µM | 4.5 µM | 7.64 µM | 20.5 | 6.69 µM | 5.59 | 6.66 | 14.5 | 29.7 | 10.3 µM | 1.95 | 1.89 | 2.31 µM | 2.05 µM | 2.12 µM | 2.22 | 2.54 | 3.82 | 2.03 | 2.79 |
| O=C(Nc1n[nH]c2cc(-c3ccccc3)ccc12)C1CC1 | > 20.7 µM | > 25 µM | > 25 µM | > 25 | > 25 µM | > 25 | > 25 | > 25 | > 25 | > 25 µM | 6.34 | > 25 | > 25 µM | 1.42 µM | 7.15 µM | 9.07 | > 25 | 14.2 | 3.31 | 4.77 |
| CC(C)c1c(O)c(O)c2c(c1O)C(=O)C(O)=C1C(C)(C)CCC[C@@]12C | 4.78 µM | > 100 µM | 5.63 µM | 9.69 | 10.1 µM | 12 | 13.9 | 15.6 | 6.59 | 11.8 µM | – | – | – | – | – | – | – | – | – | – |
| Cc1cc2nc(C=C(C(F)(F)F)C(F)(F)F)oc2cc1C | 5.03 µM | 9.72 µM | > 10 µM | 5.1 | > 10 µM | > 10 | > 10 | > 10 | > 10 | 3.42 µM | – | – | – | – | – | – | – | – | – | – |
| CC1=CC(C)(C)N=C2SC(c3ccc(N)cc3)=NN12 | > 53 µM | > 100 µM | > 100 µM | > 66 | > 100 µM | > 100 | > 100 | > 100 | > 72.1 | > 61.2 µM | – | – | – | – | – | – | – | – | – | – |
| COc1ccc(C(=O)c2cc(C)c(OC)c(C)c2)c(OC)c1O | 0.0876 µM | > 100 µM | > 100 µM | > 100 | 1.35 µM | > 100 | > 100 | > 100 | > 100 | > 100 µM | 0.0276 | 0.19 | 0.247 µM | 0.0236 µM | 0.0713 µM | 0.0396 | 0.211 | 0.228 | – | 0.0366 |
| COc1ccc2[nH]c3c4[nH]c5ccc(OC)cc5c4c4c(c3c2c1)C(=O)NC4=O | > 25 µM | > 25 µM | > 25 µM | > 25 | > 25 µM | > 25 | > 25 | > 25 | > 25 | > 25 µM | > 21.1 | > 25 | > 25 µM | > 6.63 µM | > 10.3 µM | > 15.7 | 12.2 | > 25 | 1.29 | > 25 |
